# Data as given in patent publication US20220002267A1, “TYROSINE KINASE 2 INHIBITORS, PREPARATION METHODS AND MEDICINAL USES THEREOF” (Eternity Bioscience Inc., priority 2020, published 2022).
# How the values were obtained:
# [1] = test system: experimental autoimmune disease models (psoriasis, SLE, and IBD); conditions: cited from earlier work
# [2] = test system: IL-12/IL-23 and Type I IFN pathways; conditions: Tokarski et al. 2015; cited from earlier work
# Tyk2 JH2 Pseudokinase = biological target: T1, Tyk2 JH2 Pseudokinase (Homo sapiens, UniProt P29597); assay: KdELECT Competition Binding Assay; conditions: 11-point 3-fold dilution series; performed by Eurofins DiscoverX
# T1 construct: purchased Eurofins DiscoverX Corporation (CRO); host or cells: E. coli BL21-derived host (T7 phage) or HEK-293 cells
# Method: The KdELECT Competition Binding Assay is performed by a CRO, Eurofins DiscoverX Corporation following the established standard protocol (DiscoverX, San Diego, Calif.). Briefly, Kinase-tagged T7 phage strains were prepared in an E. coli host derived from the BL21 strain. E. coli were grown to log-phase and infected with T7 phage and incubated with shaking at 32° C. until lysis. The lysates were centrifuged and filtered to remove cell debris. The remaining kinases were produced in HEK-293 cells and subsequently tagged with DNA for qPCR detection. Streptavidin-coated magnetic beads were treated with biotinylated small molecule ligands for 30 minutes at room temperature to generate affinity resins for kinase assays. The liganded beads were blocked with excess biotin and washed with blocking buffer (SeaBlock (Pierce), 1% BSA, 0.05% Tween 20, 1 mM DTT) to remove unbound ligand and to reduce nonspecific binding. Binding reactions were assembled by combining kinases, liganded affinity beads, and test compounds in 1× binding buffer (20% SeaBlock, 0.17×PBS, 0.05% Tween 20, 6 mM DTT). Test compounds were prepared as 111-fold stocks in 100% DMSO. Kds were determined using an 11-point 3-fold compound dilution series with three DMSO control points. All compounds for Kd measurements are distributed by acoustic transfer (non-contact dispensing) in 100% DMSO. The compounds were then diluted directly into the assays such that the final concentration of DMSO was 0.9%. All reactions performed in polypropylene 384-well plate. Each was a final volume of 0.02 mL. The assay plates were incubated at room temperature with shaking for 1 hour and the affinity beads were washed with wash buffer (1×PBS, 0.05% Tween 20). The beads were then re-suspended in elution buffer (1×PBS, 0.05% Tween 20, 0.5 μM non-biotinylated affinity ligand) and incubated at room temperature with shaking for 30 minutes. The kinase concentration in the eluates was measured by quantitative PCR.
# Compound Handling: An 11-point 3-fold serial dilution of each test compound was prepared in 100% DMSO at 100-fold final test concentration and subsequently diluted to 1-fold in the assay (final DMSO concentration=1%). Most Kds were determined using a compound top concentration=30,000 nM. If the initial Kd determined was <0.5 nM (the lowest concentration tested), the measurement was repeated with a serial dilution starting at a lower top concentration.
# [3] = test system: Tyk2-mediated, IFNα-induced STAT1 phosphorylation in human Kit225 T cell line; assay: IFNα_Kit225 T Cell Assay (phosphorylated-STAT1, AlphaLISA); assay type: cell-based; conditions: Kit225 cells, compound 1 hour, human recombinant IFNα 20 minutes, pSTAT1; read-out: IFN-α Kit225 (IC50)
# Method: (§1) Kit225 cells were seeded in 384-well plate at a density of 0.5×10^5 cells/well in 4 μL HBSS, and incubated for 2 hours in a humidified, 5% CO2 cell culture incubator at 37° C. The cells were treated with serial diluted compounds for 1 hour and stimulated with human recombinant IFNα (Biolegend) for 20 minutes. The treated cells were then lysed and cellular phosphorylated-STAT1 levels were measured by AlphaLISA (PerkinElmer) according to the manufacture's instructions. Inhibition data were calculated by comparison to vehicle control wells for 0% inhibition and non-stimulated control wells for 100% inhibition. Dose response curves were then generated to determine the concentration required to suppress 50% of cellular response (IC50) as derived by non-linear regression analysis using GraphPad Prism.
# [4] = test system: Tyk2-mediated, IL23-induced STAT3 phosphorylation in human Kit225 T cell line; assay: IL-23_Kit225 T Cell Assay (phosphorylated-STAT3, AlphaLISA); assay type: cell-based; conditions: Kit225 cells, compound 1 hour, human recombinant IL-23 20 minutes, pSTAT3
# Method: as §1, with “Kit225 cells (licensed from Professor Toshiyuki Hori, Ritsumeikan University, Japan) were seeded” for “Kit225 cells were seeded”, “density of 1×10^5 cells/well in” for “density of 0.5×10^5 cells/well in”, “4 μL Hank's Balanced Salt Solution (HBSS, Gibco), and incubated” for “4 μL HBSS, and incubated”, “human recombinant IL-23 (R&D Systems) for 20” for “human recombinant IFNα (Biolegend) for 20”, “and cellular phosphorylated-STAT3 levels were” for “and cellular phosphorylated-STAT1 levels were”
# T1 sequence (P29597 589-875 limits assumed): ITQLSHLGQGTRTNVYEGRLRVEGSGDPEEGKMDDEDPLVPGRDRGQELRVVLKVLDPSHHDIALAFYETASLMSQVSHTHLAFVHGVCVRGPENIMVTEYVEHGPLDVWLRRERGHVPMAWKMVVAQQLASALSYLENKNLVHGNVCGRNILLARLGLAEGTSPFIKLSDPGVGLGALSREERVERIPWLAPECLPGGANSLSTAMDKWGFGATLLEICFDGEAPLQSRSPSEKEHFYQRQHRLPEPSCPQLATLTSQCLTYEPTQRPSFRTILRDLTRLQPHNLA
Molecule,in vivo efficacy in experimental autoimmune disease models [1],block of IL-12/IL-23 and Type I IFN pathways [2],Kd (Tyk2 JH2 Pseudokinase),IC50 [3],IC50 [4]
BMS986165,substantial in vivo efficacy,effectively block,–,–,–
"CNC(=O)c1nnc(Nc2ccc(N3CC(F)(F)C3)cn2)cc1Nc1cccc(-c2ncn(C)n2)c1OC [Example A2, 6-((5-(3,3-difluoroazetidin-1-yl)pyridin-2-yl)amino)-4-((2-methoxy-3-(1-methyl-1H-1,2,4-triazol-3-yl)phenyl)amino)-N-methylpyridazine-3-carboxamide]",–,–,0.0063 nM,25 nM,31 nM
"CNC(=O)c1nnc(Nc2cccc(N3CCC3)n2)cc1Nc1cccc(-c2ncn(C)n2)c1OC [Example A3, 6-((6-(azetidin-1-yl)pyridin-2-yl)amino)-4-((2-methoxy-3-(1-methyl-1H-1,2,4-triazol-3-yl)phenyl)amino)-N-methylpyridazine-3-carboxamide]",–,–,0.011 nM,6 nM,15 nM
"[2H]C([2H])([2H])NC(=O)c1nnc(Nc2ccc(N3CC(OC)C3)cn2)cc1Nc1cccc(-c2ncn(C)n2)c1OC [Example A4, 4-((2-methoxy-3-(1-methyl-1H-1,2,4-triazol-3-yl)phenyl)amino)-6-((5-(3-methoxyazetidin-1-yl)pyridin-2-yl)amino)-N-(methyl-d3)pyridazine-3-carboxamide]",–,–,0.0052 nM,83 nM,5.9 nM
"CNC(=O)c1nnc(Nc2ccc(N3CCC3)cn2)cc1Nc1cccc(-c2ncn(C)n2)c1OC [Example A1, 6-((5-(azetidin-1-yl)pyridin-2-yl)amino)-4-((2-methoxy-3-(1-methyl-1H-1,2,4-triazol-3-yl)phenyl)amino)-N-methylpyridazine-3-carboxamide]",–,–,0.067 nM,11 nM,6.7 nM
"[2H]C([2H])([2H])NC(=O)c1nnc(Nc2ccc(C3(O)COC3)cn2)cc1Nc1cccc(-c2ncn(C)n2)c1OC [Example A5, 6-((5-(3-hydroxyoxetan-3-yl)pyridin-2-yl)amino)-4-((2-methoxy-3-(1-methyl-1H-1,2,4-triazol-3-yl)phenyl)amino)-N-(methyl-d3)pyridazine-3-carboxamide]",–,–,0.0043 nM,230 nM,38 nM
